Several values for one entry are separate records, joined by “and”; a condition that tells them apart may be missing. Equal values may be shown once. Activity calls are given as the source filed them. The calls are words filed in the database; no cut-off is given here.
Key:
Mus musculus [1] = assay: The compound was tested for anticonvulsant activity in Maximal electroshock seizure test (MES) for 4 hr in mice(ip); no activity or toxicity at 300 mg/kg; type: functional, organism-based; set-up: dose 300 mg/kg
Mus musculus [2] = assay: The anticonvulsant activity in subcutaneous pentylenetetrazole seizure test (sc Met) for 4 hr in mice; no activity or no toxicity at 300 mg/kg; type: functional, organism-based; set-up: dose 300 mg/kg
[3] = The compound was tested for neurologic toxicity (rotarod) test for 4 hours in mice; no activity or no toxicity at 300 mg/kg; type: organism-based; set-up: dose 300 mg/kg; details: mouse, in vivo
Mus musculus [4] = assay: Anticonvulsant activity in Maximal electroshock seizure test at 100 mg/kg i.p. in mice.; type: functional, organism-based; set-up: dose 100 mg/kg
[5] = The compound was tested for neurologic toxicity (rotarod) test for 30 min in mice; no activity or no toxicity at 300 mg/kg; type: organism-based; set-up: dose 300 mg/kg; details: mouse, in vivo, 0.5 h
Mus musculus [6] = assay: The compound was tested for anticonvulsant activity in subcutaneous pentylenetetrazole seizure test (sc Met) for 30 min in mice; active at 300 mg/kg; type: functional, organism-based; set-up: dose 300 mg/kg
Mus musculus [7] = assay: The compound was tested to inhibit 50% of induced subcutaneous pentylenetetrazole seizure in mice on ip administration; type: functional
Mus musculus [8] = assay: The compound was tested to inhibit 50% of induced maximal electroshock seizure in mice on ip administration; type: functional
Mus musculus [9] = assay: The compound was determined for the dose (mg/kg) by rotarod test at the time of peak neurotoxic effect in mice on ip administration; type: functional
Mus musculus [10] = assay: Anticonvulsant activity in subcutaneous pentylenetetrazole seizure test for 30 min in mice; No activity/toxicity at 300 mg/kg.; type: functional, organism-based; set-up: dose 300 mg/kg
[11] = The compound was tested for neurologic toxicity (rotarod) test for 4 hours in mice; active at 30 mg/kg; type: organism-based; set-up: dose 30 mg/kg; details: mouse, in vivo
[12] = The compound was tested for neurologic toxicity (rotarod) test for 30 min in mice; active at 30 mg/kg; type: organism-based; set-up: dose 30 mg/kg; details: mouse, in vivo, 0.5 h
[13] = biological target: Sigma non-opioid intracellular receptor 1 (Homo sapiens) (UniProt Q99720); assay: Ratio between the Ki(nM)values of sigma-2 and sigma-1; type: functional
Chain of Sigma non-opioid intracellular receptor 1 (Homo sapiens) (Q99720 whole entry): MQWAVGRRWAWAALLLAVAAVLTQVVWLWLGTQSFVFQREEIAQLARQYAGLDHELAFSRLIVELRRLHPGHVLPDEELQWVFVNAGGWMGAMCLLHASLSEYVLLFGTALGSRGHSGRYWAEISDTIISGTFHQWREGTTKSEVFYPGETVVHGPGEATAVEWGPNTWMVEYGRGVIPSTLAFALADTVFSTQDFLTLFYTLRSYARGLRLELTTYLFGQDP

[14] = The compound was tested for time of peak effect (TPE) in hours for its toxicity in mice on ip administration.; type: organism-based; details: mouse, in vivo
Sigma 2 receptor = assay: Affinity on sigma 2 receptor using [3H]- DTG as radioligand
[15] = The compound was tested for neurologic toxicity (rotarod) test for 30 min in mice; active at 300 mg/kg; type: organism-based; set-up: dose 300 mg/kg; details: mouse, in vivo, 0.5 h
Mus musculus [16] = assay: Inhibition of s.c. pentylenetetrazole induced seizure in mice following i.p. administration.; type: functional
Mus musculus [17] = assay: (§1) The compound was determined for the dose (mg/kg) by rotarod test at the time of peak neurotoxic effect in mice on ip administration.; type: functional
Mus musculus [18] = assay: The compound was tested for anticonvulsant activity in Maximal electroshock seizure test (MES) for 4 hr in mice(ip); active at 100 mg/kg; type: functional, organism-based; set-up: dose 100 mg/kg
Mus musculus [19] = assay: Time of peak effect in mice following i.p. administration.; type: functional
[20] = (§2) The compound was tested for neurologic toxicity (rotarod) test for 30 min in mice; active at 100 mg/kg; type: organism-based; set-up: dose 100 mg/kg; details: mouse, in vivo, 0.5 h
Mus musculus [21] = assay: The compound was tested to inhibit 50% of induced maximal electroshock seizure in mice on ip administration.; type: functional
Mus musculus [22] = assay: The compound was tested for anticonvulsant activity in subcutaneous pentylenetetrazole seizure test (sc Met) for 4 hr in mice; active at 300 mg/kg; type: functional, organism-based; set-up: dose 300 mg/kg
[23] = (§3) The compound was tested for neurologic toxicity (rotarod) test for 4 hours in mice; active at 300 mg/kg; type: organism-based; set-up: dose 300 mg/kg; details: mouse, in vivo
Rattus norvegicus [24] = assay: The compound was tested for the effective oral dose to inhibit 50% of the anticonvulsant in rats.; type: functional
Mus musculus [25] = assay: The compound was tested for anticonvulsant activity in Maximal electroshock seizure test for 30 min in mice(ip); active at 30 mg/kg; type: functional, organism-based; set-up: dose 30 mg/kg
Mus musculus [26] = assay: The compound was tested for anticonvulsant activity in Maximal electroshock seizure test (MES) for 4 hr in mice(ip); active at 300 mg/kg; type: functional, organism-based; set-up: dose 300 mg/kg
Mus musculus [27] = organism: Mus musculus; assay: Protective index value is the ratio between TD50 and ED50 values.; type: functional
Mus musculus [28] = assay: The compound was tested for anticonvulsant activity in subcutaneous pentylenetetrazole seizure test (sc Met) for 30 min in mice; active at 100 mg/kg; type: functional, organism-based; set-up: dose 100 mg/kg
Rattus norvegicus [29] = assay: The compound was tested for the effective oral dose to inhibit 50% of the anticonvulsant in rats; type: functional
Rattus norvegicus [30] = organism: Rattus norvegicus; assay: Protective index value is the ratio between ED50 and TD50; type: functional
Rattus norvegicus [31] = assay: The compound was tested for the toxic dose on oral administration.; type: functional
[32] = as §1; type: ADME, organism-based; details: mouse, in vivo
Mus musculus [33] = assay: The compound was tested for anticonvulsant activity in Maximal electroshock seizure test for 30 min in mice(ip); active at 300 mg/kg; type: functional, organism-based; set-up: dose 300 mg/kg
Mus musculus [34] = assay: as §3; type: functional, organism-based; set-up: dose 300 mg/kg
Mus musculus [35] = assay: as §2; type: functional, organism-based; set-up: dose 100 mg/kg

Cn1c(=O)oc2cc(C(=O)c3ccccc3)ccc21
MES (Mus musculus [1]): No activity or toxicity at 300 mg/kg | scMet (Mus musculus [2]): active at 300 mg/kg | Rotarod toxicity [3]: No activity or no toxicity at 300 mg/kg | MES (Mus musculus [4]): No activity or toxicity at 300 mg/kg | Rotarod toxicity [5]: No activity or no toxicity at 300 mg/kg | scMet (Mus musculus [6]): active at 300 mg/kg

CCC1(c2ccccc2)C(=O)NC(=O)NC1=O [PHENOBARBITAL]
ED50 (Mus musculus [7]): 13.2 mg/kg | ED50 (Mus musculus [8]): 21.8 mg/kg | TD50 (Mus musculus [9]): 69 mg/kg

CCC(=O)c1ccc2c(c1)oc(=O)n2CCCN1CCCCC1
MES (Mus musculus [1]): No activity or toxicity at 300 mg/kg | scMet (Mus musculus [2]): No activity or no toxicity at 300 mg/kg | MES (Mus musculus [4]): No activity or toxicity at 300 mg/kg | scMet (Mus musculus [10]): No activity or no toxicity at 300 mg/kg | Rotarod toxicity [11]: active at 30 mg/kg | Rotarod toxicity [12]: active at 30 mg/kg

O=c1oc2cc(Cc3ccccc3)ccc2n1CCN1CCOCC1
Ratio [13]: 7 | scMet (Mus musculus [2]): No activity or no toxicity at 300 mg/kg | Toxicity [14]: 1 h | Ki (Sigma 2 receptor): 515 nM | ED50 (Mus musculus [8]): 87 mg/kg | Rotarod toxicity [3]: active at 300 mg/kg | MES (Mus musculus [4]): active at 100 mg/kg | scMet (Mus musculus [10]): No activity or no toxicity at 300 mg/kg | Rotarod toxicity [15]: active at 300 mg/kg | ED50 (Mus musculus [16]): > 225 mg/kg | TD50 (Mus musculus [17]): 194 mg/kg | MES (Mus musculus [18]): active at 100 mg/kg | Activity (Mus musculus [19]): 1 h

CCC(=O)c1ccc2c(c1)sc(=O)n2CCN1CCOCC1
MES (Mus musculus [1]): No activity or toxicity at 300 mg/kg | scMet (Mus musculus [2]): active at 300 mg/kg | Toxicity [14]: 0.25 h | Rotarod toxicity [3]: active at 100 mg/kg | MES (Mus musculus [4]): No activity or toxicity at 300 mg/kg | ED50 (Mus musculus [16]): > 300 mg/kg | TD50 (Mus musculus [17]): 239 mg/kg | Rotarod toxicity [20]: active at 100 mg/kg | ED50 (Mus musculus [21]): 62.1 mg/kg | Activity (Mus musculus [19]): 0.25 h | scMet (Mus musculus [6]): active at 300 mg/kg

CCCc1ccc2nc(O)sc2c1
MES (Mus musculus [4]): active at 100 mg/kg | Rotarod toxicity [20]: active at 100 mg/kg | MES (Mus musculus [18]): active at 100 mg/kg | scMet (Mus musculus [22]): active at 300 mg/kg | scMet (Mus musculus [6]): active at 300 mg/kg | Rotarod toxicity [23]: active at 100 mg/kg

CCCC(CCC)C(=O)O [VALPROIC ACID]
ED50 (Rattus norvegicus [24]): 490 mg/kg | ED50 (Mus musculus [16]): 149 mg/kg

CCC(=O)c1ccc2c(c1)sc(=O)n2CCN(C)C
scMet (Mus musculus [2]): No activity or no toxicity at 300 mg/kg | Toxicity [14]: 0.25 h | MES (Mus musculus [25]): active at 30 mg/kg | scMet (Mus musculus [10]): No activity or no toxicity at 300 mg/kg | Rotarod toxicity [15]: active at 300 mg/kg | ED50 (Mus musculus [16]): > 130 mg/kg | TD50 (Mus musculus [17]): 84.5 mg/kg | ED50 (Mus musculus [21]): 21.8 mg/kg | MES (Mus musculus [26]): active at 30 mg/kg | Activity (Mus musculus [19]): 0.25 h | Rotarod toxicity [23]: active at 300 mg/kg

CCC(=O)c1ccc2c(c1)sc(=O)n2CCCN1CCCCC1
MES (Mus musculus [1]): active at 30 mg/kg | scMet (Mus musculus [2]): No activity or no toxicity at 300 mg/kg | MES (Mus musculus [25]): active at 30 mg/kg | Rotarod toxicity [3]: active at 30 mg/kg | scMet (Mus musculus [10]): No activity or no toxicity at 300 mg/kg | Rotarod toxicity [12]: active at 30 mg/kg

Oc1nc2ccc(Cc3ccc(F)cc3)cc2o1
PI (Mus musculus [27]): 2.8 and 1.6 | scMet (Mus musculus [28]): active at 100 mg/kg | Toxicity [14]: 1 h | ED50 (Rattus norvegicus [29]): 11.9 mg/kg | MES (Mus musculus [4]): active at 100 mg/kg | ED50 (Mus musculus [16]): 218 mg/kg | PI (Rattus norvegicus [30]): 18.5 | TD50 (Rattus norvegicus [31]): > 220 mg/kg | Rotarod toxicity [20]: active at 100 mg/kg | ED50 (Mus musculus [21]): 125 mg/kg | MES (Mus musculus [18]): active at 100 mg/kg | scMet (Mus musculus [22]): active at 100 mg/kg | Activity (Mus musculus [19]): 1 h | TD50 [32]: 356 mg/kg | Rotarod toxicity [23]: active at 100 mg/kg

CCCCCc1ccc2nc(O)sc2c1
PI (Mus musculus [27]): 2.3 and 1.5 | Toxicity [14]: 0.5 h | ED50 (Mus musculus [8]): 58.9 mg/kg | MES (Mus musculus [4]): active at 100 mg/kg | ED50 (Rattus norvegicus [24]): 50.5 mg/kg | ED50 (Mus musculus [16]): 90.5 mg/kg | PI (Rattus norvegicus [30]): 2.4 | TD50 (Rattus norvegicus [31]): > 120 mg/kg | Rotarod toxicity [20]: active at 100 mg/kg | MES (Mus musculus [18]): active at 100 mg/kg | scMet (Mus musculus [22]): active at 300 mg/kg | Activity (Mus musculus [19]): 0.25 h | scMet (Mus musculus [6]): active at 300 mg/kg | TD50 [32]: 137 mg/kg | Rotarod toxicity [23]: active at 100 mg/kg

CCC(=O)c1ccc2nc(O)oc2c1
MES (Mus musculus [1]): active at 300 mg/kg | scMet (Mus musculus [2]): No activity or no toxicity at 300 mg/kg | Rotarod toxicity [3]: No activity or no toxicity at 300 mg/kg | Rotarod toxicity [5]: No activity or no toxicity at 300 mg/kg | scMet (Mus musculus [10]): No activity or no toxicity at 300 mg/kg | MES (Mus musculus [33]): active at 300 mg/kg

O=c1[nH]c2ccccc2s1
Rotarod toxicity (Mus musculus [34]): active at 100 mg/kg | scMet (Mus musculus [28]): active at 100 mg/kg | MES (Mus musculus [4]): active at 300 mg/kg | scMet (Mus musculus [22]): active at 100 mg/kg | Rotarod toxicity (Mus musculus [35]): active at 100 mg/kg | MES (Mus musculus [26]): active at 300 mg/kg

NC(=O)N1c2ccccc2C=Cc2ccccc21 [CARBAMAZEPINE]
ED50 (Rattus norvegicus [24]): 8.5 mg/kg | ED50 (Mus musculus [16]): > 100 mg/kg | ED50 (Mus musculus [21]): 8.8 mg/kg
